Experimental findings from the supplement of paper PMC10307832 are described below.

Compound in experiment [1]: Cc1nc(C(=O)NCC(=O)O)c(O)c2ccc(Oc3ccccc3)cc12 [FG-4592]
The experiment is described as follows: relative viability (nuclei count vs DMSO), 5 days (fraction); higher = more cells survive. The method, boiled down: (§1)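 Nuclei counted with MetaXpress define viability as the ratio of treated to vehicle wells, given as a median across plates. The lung cancer cell lines were in 1536-well plates, pinned with five √10-spaced library-drug doses and imaged at 4× after 5 days and Hoechst staining. Plates passed with control CV below 25% and at least one doubling.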

Compound in experiment [2]: CC1=CC(=C(N1C2=CC=C(C=C2)Cl)C)C(=O)CN3CCCCC3 [IU1-47]
The description is as above. The method, boiled down:
as §1

On to EPLC-272H, for which the relative viability was found to be 0.886 in experiment [1] (0.08 µM); 0.777 in experiment [1] (0.253 µM); 0.7 in experiment [1] (0.8 µM); 0.901 in experiment [1] (2.53 µM); 0.889 in experiment [1] (8 µM); 1.02 in experiment [2] (0.08 µM). Further, the relative viability in experiment [2] (0.253 µM) came out at 1.05; in experiment [2] (0.8 µM), 0.933; in experiment [2] (8 µM), 0.806.

For the cell line H3255, the relative viability worked out at 1.02 in experiment [1] (0.08 µM); 0.87 in experiment [1] (0.253 µM); 0.926 in experiment [1] (0.8 µM); 0.9 in experiment [1] (2.53 µM); 1.08 in experiment [1] (8 µM); 1.11 in experiment [2] (0.08 µM). Also, the relative viability came out at 1.16 in experiment [2] (0.253 µM), 1.02 in experiment [2] (0.8 µM), 0.74 in experiment [2] (2.53 µM) and 0.975 in experiment [2] (8 µM).

On to HARA, for which the relative viability in experiment [1] (0.08 µM) amounted to 0.782; in experiment [1] (0.253 µM), 0.752; in experiment [1] (0.8 µM) it was 0.822; in experiment [1] (2.53 µM), 1.01; in experiment [1] (8 µM) it was 1.13; in experiment [2] (0.08 µM) it was 0.964. Further, the relative viability in experiment [2] (0.253 µM) came out at 0.935; in experiment [2] (0.8 µM), 1.09; in experiment [2] (2.53 µM), 0.68; in experiment [2] (8 µM), 0.817.

With HCC-15, the relative viability in experiment [1] (0.08 µM) was found to be 0.978; in experiment [1] (0.253 µM), 0.922; in experiment [1] (0.8 µM), 0.954; in experiment [1] (2.53 µM), 0.95; in experiment [1] (8 µM) it was 1.05; in experiment [2] (0.08 µM) it was 1.1. Besides, the relative viability turned out to be 1.08 in experiment [2] (0.253 µM), 1.05 in experiment [2] (0.8 µM), 0.678 in experiment [2] (2.53 µM) and 0.976 in experiment [2] (8 µM).

Consider HCC-44, for which the relative viability in experiment [1] (0.08 µM) was 1.01; in experiment [1] (0.253 µM) it was 0.939; in experiment [1] (0.8 µM), 0.806; in experiment [1] (2.53 µM), 1.05; in experiment [1] (8 µM), 1.04; in experiment [2] (0.08 µM), 0.964. Besides, the relative viability in experiment [2] (0.253 µM) is 1.03; in experiment [2] (0.8 µM) it was 1.03; in experiment [2] (2.53 µM), 0.945; in experiment [2] (8 µM), 1.02.

HCC-78: the relative viability in experiment [1] (0.08 µM) was found to be 0.893; in experiment [1] (0.253 µM), 0.746; in experiment [1] (0.8 µM), 0.972; in experiment [1] (2.53 µM) it was 0.916; in experiment [1] (8 µM), 1.01; in experiment [2] (0.08 µM), 0.97. For the same cell line, the relative viability is 0.953 in experiment [2] (0.253 µM), 1.03 in experiment [2] (0.8 µM), 0.874 in experiment [2] (2.53 µM) and 0.889 in experiment [2] (8 µM).

On to HCC-366, for which the relative viability was 0.798 in experiment [1] (0.08 µM); 1 in experiment [1] (0.253 µM); 1.02 in experiment [1] (0.8 µM); 0.964 in experiment [1] (2.53 µM); 1.05 in experiment [1] (8 µM); 1.03 in experiment [2] (0.08 µM). Besides, the relative viability in experiment [2] (0.253 µM) amounted to 0.969; in experiment [2] (0.8 µM), 1.04; in experiment [2] (2.53 µM), 1.04; in experiment [2] (8 µM), 0.879.

For HCC-827, the relative viability in experiment [1] (0.08 µM) stood at 1.03; in experiment [1] (0.253 µM), 0.988; in experiment [1] (0.8 µM), 1.02; in experiment [1] (2.53 µM), 1.02; in experiment [1] (8 µM), 1.03; in experiment [2] (0.08 µM), 1.09. In addition, the relative viability in experiment [2] (0.253 µM) is 1.05; in experiment [2] (0.8 µM), 1.05; in experiment [2] (2.53 µM), 1.08; in experiment [2] (8 µM), 1.09.

HOP-62: the relative viability in experiment [1] (0.08 µM) turned out to be 0.997; in experiment [1] (0.253 µM), 0.957; in experiment [1] (0.8 µM), 0.943; in experiment [1] (2.53 µM), 0.96; in experiment [1] (8 µM), 1.01; in experiment [2] (0.08 µM), 1.09. Also, the relative viability in experiment [2] (0.253 µM) amounted to 1.05; in experiment [2] (0.8 µM), 1.09; in experiment [2] (2.53 µM) it was 0.779; in experiment [2] (8 µM), 1.09.

Turning to IA-LM, the relative viability amounted to 0.913 in experiment [1] (0.08 µM); 0.933 in experiment [1] (0.253 µM); 0.894 in experiment [1] (0.8 µM); 0.859 in experiment [1] (2.53 µM); 0.764 in experiment [1] (8 µM); 1.11 in experiment [2] (0.08 µM). Also, the relative viability in experiment [2] (0.253 µM) was found to be 1.08; in experiment [2] (0.8 µM) it was 1.08; in experiment [2] (2.53 µM) it was 1.01; in experiment [2] (8 µM), 0.884.

For LC-2-ad, the relative viability in experiment [1] (0.08 µM) came to 0.997; in experiment [1] (0.253 µM), 0.924; in experiment [1] (0.8 µM) it was 0.973; in experiment [1] (2.53 µM) it was 0.925; in experiment [1] (8 µM) it was 1.09; in experiment [2] (0.08 µM) it was 0.981. Also, the relative viability in experiment [2] (0.253 µM) was 0.997; in experiment [2] (0.8 µM) it was 1.07; in experiment [2] (2.53 µM) it was 0.673; in experiment [2] (8 µM) it was 0.889.

Consider LCLC-97TM1, for which the relative viability in experiment [1] (0.08 µM) was found to be 0.918; in experiment [1] (0.253 µM), 0.901; in experiment [1] (0.8 µM), 0.791; in experiment [1] (2.53 µM), 0.924; in experiment [1] (8 µM), 0.873; in experiment [2] (0.08 µM) it was 0.954. For the same cell line, the relative viability in experiment [2] (0.253 µM) is 1.22; in experiment [2] (0.8 µM), 1.06; in experiment [2] (2.53 µM) it was 0.589; in experiment [2] (8 µM) it was 0.834.

Consider LCLC-103H, for which the relative viability in experiment [1] (0.08 µM) worked out at 0.955; in experiment [1] (0.253 µM), 0.971; in experiment [1] (0.8 µM) it was 0.807; in experiment [1] (2.53 µM), 0.865; in experiment [1] (8 µM), 0.938; in experiment [2] (0.08 µM) it was 1.03. In addition, the relative viability in experiment [2] (0.253 µM) worked out at 1.1; in experiment [2] (0.8 µM), 0.871; in experiment [2] (2.53 µM), 0.976; in experiment [2] (8 µM), 0.933.
